# Test results reported in patent US12539289B2, “Phorbol ester compositions and methods of use for treating or reducing the duration of cytopenia” (BIOSUCCESS BIOTECH CO., LTD., priority 2014, dated 2026).
# What was measured:
# Drug Induced Cytopenia = assay: Drug induced cytopenia treated by TPA: blood cell counts after DNR + Ara-C; format: in vivo, mice; conditions: for PLT / RBC / WBC: n = 10
# Experimental: Ninety (90) adult mice were randomly assigned to 9 groups (10 mice per group). No drug was administered in Control group. Model group was given DNR (6 mg/kg)+Ara-C (150 mg/kg) on Day 0. The rest of the 7 groups were given DNR (6 mg/kg)+Ara-C (150 mg/kg) on Day 0, and each group on Day 7, Day 8, and Day 9 was administered with one of the following drugs: G-CSF (10 μg/kg), EPO (500 IU/kg), TPA (12.5 μg/kg), TPA (25 μg/kg), TPA (50 μg/kg), TPA (12.5 μg/kg)+GCSF (10 μg/kg), or TPA (12.5 μg/kg)+EPO (500 IU/kg).
# [1] = test system: neutropenia and thrombocytopenia; assay: Phase 2a study of phorbol ester in AML patients who receive induction chemotherapy; format: in vivo, human; conditions: AML patients after 3+7 induction; TPA 0.125 mg/m^2 IV with G-CSF 400 μg support; standard deviation of 5 days; usual 20±3 days
# Experimental: This is a single-arm, open label study. Ten (10) patients receive standard induction chemotherapy with idarubicin (12 mg/m2) or daunorubicin (60 mg/m2) on days 1, 2, 3 and Ara-C continuous (100-200 mg/m2/day) infusion on days 1-7. On Day 8 or 24 hours after completion of all scheduled Ara-C infusion, TPA is started at 0.125 mg/m^2 IV every two days, in addition to G-CSF (400 μg subcutaneously daily) support until absolute neutrophil count (ANC) above 1000/μL for two consecutive days.”
# This study is designed to examine the efficacy of TPA as a supportive care agent to enhance bone marrow recovery in AML patients after induction chemotherapy. Study Objectives: • 1. Evaluate the safety and tolerability of TPA in AML patients after induction chemotherapy • 2. Evaluate preliminary efficacy in shortening of the duration of neutropenia and thrombocytopenia in AML patients after induction chemotherapy • 3. […] AML should be classified by FAB classification, and all subtypes are allowed and recorded during enrollment, except patients with M3 or acute promyelocytic leukemia. • 3. […]
# Evaluation of neutropenia and thrombocytopenia after induction chemotherapy is done by daily hematological tests, including complete blood count and differential count. […] The duration of neutropenia and thrombocytopenia is assessed separately and the ANC and platelet counts should be plotted in a diagram for each patient. […]
# [2] = test system: post-chemotherapy neutropenia; conditions: cited from earlier work
# [3] = 8 days after DNR + Ara-c, 1 day after 1st dose, G-CSF 10, EPO 500, TPA 12.5, TPA + GCSF 12.5 + 10, TPA + EPO 12.5 + 500 (μg·kg^−1)
# [4] = 8 days after DNR + Ara-c, 1 day after 1st dose, TPA 25 μg·kg^−1
# [5] = 8 days after DNR + Ara-c, 1 day after 1st dose, TPA 50 μg·kg^−1
# [6] = 9 days after DNR + Ara-c, 1 day after 2nd dose, G-CSF 10, EPO 500, TPA 12.5, TPA + GCSF 12.5 + 10, TPA + EPO 12.5 + 500 (μg·kg^−1)
# [7] = 9 days after DNR + Ara-c, 1 day after 2nd dose, TPA 25 μg·kg^−1
# [8] = 9 days after DNR + Ara-c, 1 day after 2nd dose, TPA 50 μg·kg^−1
# [9] = 10 days after DNR + Ara-c, 1 day after 3rd dose, G-CSF 10, EPO 500, TPA 12.5, TPA + GCSF 12.5 + 10, TPA + EPO 12.5 + 500 (μg·kg^1)
# [10] = 10 days after DNR + Ara-c, 1 day after 3rd dose, TPA 25 μg·kg^1
# [11] = 10 days after DNR + Ara-c, 1 day after 3rd dose, TPA 50 μg·kg^1
smiles,measurement,setting,value
"CCCCCCCCCCCCCC(=O)O[C@@H]1[C@@H](C)[C@@]2(O)[C@@H](C=C(CO)C[C@]3(O)C(=O)C(C)=C[C@@H]23)[C@@H]2C(C)(C)[C@]12OC(C)=O [TPA, 12-O-tetradecanoylphorbol-13-acetate]",PLT,Drug Induced Cytopenia; [3],395 ± 30.41^(1)(1)(2)(2) ×10^9/L
same,RBC,Drug Induced Cytopenia; [3],6.08 ± 0.49^(1)(1)(2)(3)(3)(4) ×10^12/L
same,WBC,Drug Induced Cytopenia; [3],6.4 ± 0.62^(2)(2) ×10^9/L
same,PLT,Drug Induced Cytopenia; [4],391 ± 20.42^(1)(1)(2)(2) ×10^9/L
same,RBC,Drug Induced Cytopenia; [4],7.09 ± 0.23^(1)(1)(2)(2)(3)(3)(5) ×10^12/L
same,WBC,Drug Induced Cytopenia; [4],6.4 ± 0.35^(2)(2) ×10^9/L
same,PLT,Drug Induced Cytopenia; [5],413 ± 9.64^(1)(1)(2)(2) ×10^9/L
same,RBC,Drug Induced Cytopenia; [5],7.10 ± 0.24^(1)(1)(2)(2)(3)(3)(5) ×10^12/L
same,WBC,Drug Induced Cytopenia; [5],6.5 ± 0.75^(2)(2) ×10^9/L
same,PLT,Drug Induced Cytopenia; [6],965 ± 76.23^(1)(1)(2)(2) ×10^9/L
same,RBC,Drug Induced Cytopenia; [6],7.47 ± 0.55^(1)(1)(2)(2)(3)(3) ×10^12/L
same,WBC,Drug Induced Cytopenia; [6],6.84 ± 0.44^(2) ×10^9/L
same,PLT,Drug Induced Cytopenia; [7],951 ± 70.29^(1)(1)(2)(2) ×10^9/L
same,RBC,Drug Induced Cytopenia; [7],7.34 ± 0.87^(1)(1)(2)(2)(3)(3) ×10^12/L
same,WBC,Drug Induced Cytopenia; [7],6.72 ± 0.50^(2) ×10^9/L
same,PLT,Drug Induced Cytopenia; [8],999 ± 45.67^(1)(1)(2)(2) ×10^9/L
same,RBC,Drug Induced Cytopenia; [8],7.30 ± 0.49^(1)(1)(2)(2)(3)(3) ×10^12/L
same,WBC,Drug Induced Cytopenia; [8],6.86 ± 0.39^(2) ×10^9/L
same,PLT,Drug Induced Cytopenia; [9],1447 ± 78.09^(2)(2) ×10^9/L
same,RBC,Drug Induced Cytopenia; [9],7.59 ± 0.67^(1)(1)(2)(2)(3)(3) ×10^12/L
same,WBC,Drug Induced Cytopenia; [9],9.51 ± 0.85^(1)(1)(2)(2)(4)(4) ×10^9/L
same,PLT,Drug Induced Cytopenia; [10],1465 ± 72.81^(2)(2) ×10^9/L
same,RBC,Drug Induced Cytopenia; [10],8.26 ± 0.63^(1)(1)(2)(2)(3)(3)(5) ×10^12/L
same,WBC,Drug Induced Cytopenia; [10],9.69 ± 0.85^(1)(1)(2)(2)(4)(4) ×10^9/L
same,RBC,Drug Induced Cytopenia; [11],8.18 ± 0.55^(1)(1)(2)(2)(3)(3)(5) ×10^12/L
same,WBC,Drug Induced Cytopenia; [11],9.90 ± 0.64^(1)(1)(2)(2)(4)(4) ×10^9/L
same,PLT,"Drug Induced Cytopenia; 10 days after DNR + Ara-c, 1 day after 3rd dose, TPA 50 μg·kg^−1",1463 ± 80.33^(2)(2) ×10^9/L
same,"production of WBC, RBC, and platelet",Drug Induced Cytopenia; conclusion of Example 6,"promoted the production of WBC, RBC, and platelet"
same,Duration of neutropenia or thrombocytopenia,[1],12 days
same,duration of post-chemotherapy neutropenia,[2]; acute myelocytic leukemia (AML) patients,capable of shortening the duration of post-chemotherapy neutropenia
same,tolerability,[2]; recommended Phase 2 dose 0.125 mg/m^2 daily up to 5 days a week×2 weeks,well tolerated with only minor adverse events
